Results taken from PMC10897196, “Structure–activity characteristics of phenylalanine analogs selectively transported by L-type amino acid transporter 1 (LAT1)” (Scientific Reports, 2024).
Read-outs that look alike come from different tables or passages of the source.

Tests used:
[1] = Tissue accumulation (plasma, tumor, small intestine) in B16-F10 tumor-bearing mice, HPLC; type: in vivo
Description: Female C57BL/6J mice were subcutaneously injected with 2 × 10^6 B16-F10 cells. The cells were prepared in a mixture containing a 1:1 volume ratio of phosphate-buffered saline (PBS) and Matrigel (Corning, New York, USA), with the total injection volume being 200 μL, administered into the dorsal flank. Tumor growth was measured bi-daily using calipers until tumors reached a size of approximately 300 ~ 500 mm^3, at which point they were deemed palpable. […] Blood samples were collected at 30 and 60 min post-administration. Then both the tumors and small intestines were excised and weighed for subsequent analysis by HPLC.
HPLC analyses were conducted as previously described. In brief, tumors and small intestines were homogenized in ice-cold PBS (3 times the tissue weight, v/w). The homogenates were then centrifuged at 15,000 ×g for 40 min at 4 °C. A 10 μL aliquot of the tissue supernatant or plasma was mixed with 190 μL of acetonitrile (MeCN) to precipitate proteins. This mixture was subsequently centrifuged at 15,000 ×g for 30 min at 4 °C. The resulting supernatant (100 μL) was dried, and the residue was reconstituted in 20 μL of 400 mM sodium borate (pH 8.0). Finally, 5 μL of 40 mM 4-fluoro-7-nitro-2,1,3-benzoxadiazole (NBD-F) in MeCN was added for fluorescence derivatization. HPLC analysis was carried out using a NANOSPACE SI-2 HPLC system (Shiseido, Tokyo, Japan) equipped with a fluorescence detector. […] The mobile phase consisted of MeCN, water, and trifluoroacetic acid (TFA) in a 27.5:72.5:0.05 (v/v/v) ratio, delivered at a flow rate of 200 μL/min.

LAT1 = system: LAT1; design: method as in PMID 1559223; settings: in situ brain perfusion; cited from earlier work
human LAT2 = molecular target: T1, human LAT2 (Homo sapiens, UniProt Q9UHI5); assay: Inhibition of L-[14C]alanine uptake in HEK293-hLAT2 cells; type: cell-based
T1 construct: expressed in transfected cells
T1 sequence (Q9UHI5 1-535): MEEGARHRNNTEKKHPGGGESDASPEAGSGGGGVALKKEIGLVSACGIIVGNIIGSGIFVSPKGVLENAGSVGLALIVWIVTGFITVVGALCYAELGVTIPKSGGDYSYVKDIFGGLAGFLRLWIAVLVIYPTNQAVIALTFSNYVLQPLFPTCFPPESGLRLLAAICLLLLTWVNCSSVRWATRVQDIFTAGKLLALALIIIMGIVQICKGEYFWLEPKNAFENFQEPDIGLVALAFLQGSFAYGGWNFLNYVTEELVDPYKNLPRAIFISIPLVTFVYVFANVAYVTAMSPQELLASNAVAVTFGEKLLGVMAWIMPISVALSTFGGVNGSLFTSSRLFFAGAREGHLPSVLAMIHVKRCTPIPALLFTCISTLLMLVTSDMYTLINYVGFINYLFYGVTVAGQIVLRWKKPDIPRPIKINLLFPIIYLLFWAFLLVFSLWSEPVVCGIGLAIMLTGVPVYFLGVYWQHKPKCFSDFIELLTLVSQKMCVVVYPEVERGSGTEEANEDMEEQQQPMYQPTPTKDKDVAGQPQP
T1 sequence (P08195 1-529 partner): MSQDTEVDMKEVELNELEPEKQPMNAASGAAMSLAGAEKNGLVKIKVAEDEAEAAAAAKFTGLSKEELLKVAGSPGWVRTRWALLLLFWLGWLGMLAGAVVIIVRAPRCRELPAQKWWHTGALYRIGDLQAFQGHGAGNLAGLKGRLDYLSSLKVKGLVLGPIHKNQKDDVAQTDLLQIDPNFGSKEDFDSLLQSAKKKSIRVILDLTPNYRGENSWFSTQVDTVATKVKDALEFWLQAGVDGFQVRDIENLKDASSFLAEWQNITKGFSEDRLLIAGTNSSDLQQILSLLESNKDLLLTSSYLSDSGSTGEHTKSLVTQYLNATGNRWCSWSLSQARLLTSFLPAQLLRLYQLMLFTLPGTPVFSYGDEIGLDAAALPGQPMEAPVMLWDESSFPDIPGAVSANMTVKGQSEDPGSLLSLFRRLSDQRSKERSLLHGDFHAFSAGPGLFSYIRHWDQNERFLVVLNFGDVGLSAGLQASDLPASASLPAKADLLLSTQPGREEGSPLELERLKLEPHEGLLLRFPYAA
Source text: In this study, we used the HEK293 cells stably expressing human LAT1 or human LAT2, which form a heterodimeric complex with endogenous 4F2hc (CD98hc), required for plasma membrane localization. We first explored the impact of halogen group positioning in the benzene ring of Phe (Fig. 1) on its interaction with LAT1 and LAT2. […] We conducted inhibition experiments to measure the uptake of L-[^14C]leucine by LAT1 and L-[^14C]alanine by LAT2 in the presence or absence of Phe derivatives with an iodo group at position 2, 3, or 4 in the benzene ring.
The inhibition experiments were performed as described previously. HEK293-hLAT1 (1.5 × 10^5 cells/well) or HEK293-hLAT2 (2 × 10^5 cells/well) cells were plated onto poly-D-lysine-coated 24-well plates (Corning, New York, USA). Following a 2-day culture period, the uptake of 1 μM L-[^14C]leucine or L-[^14C]alanine was measured for 1 min in the absence or presence of non-radiolabeled test compounds at concentrations of 10, 30, and 100 μM. Radioactivity was quantified using a β-scintillation counter (LSC-3100; Aloka, Tokyo, Japan), and protein concentrations were determined with a Micro BCA Protein Assay Kit (Thermo Fisher Scientific, Rockford, IL). To calculate Ki values, the concentration-dependent uptake of L-[^14C]leucine or L-[^14C]alanine was analyzed in the presence and absence of test compounds[49]. The data were plotted against substrate concentration and fitted to Michaelis–Menten kinetics. Ki values were derived using nonlinear regression analysis with the enzyme kinetics inhibition module in GraphPad Prism software (Version 10.0.2; GraphPad Software Inc., San Diego, CA, USA).

Concentration in small intestine compared with plasma ([1]; i.v., normalized to tissue weight / plasma volume): lower than in plasma | Concentration in tumor compared with plasma ([1]; i.v., normalized to tissue weight / plasma volume, 2-F-Tyr at 60 min): higher than in plasma | Inhibition of LAT2-mediated L-[14C]alanine uptake (in words, rank order) (human LAT2; 1 μM L-[14C]alanine, 1 min, compounds at 10, 30, 100 μM): minimal inhibition | Ki (human LAT2; L-[14C]alanine uptake, HEK293-hLAT2, mean ± S.E.M., n = 3–4, read-out: Ki (μM) LAT2): 3750 ± 740 µM | Ki (human LAT2; as quoted in the discussion, read-out: Ki value for LAT2): ~3800 µM
Structure (SMILES): N[C@]1(C(=O)O)CCc2ccccc2C1 [bicyclic-Phe, (R)-2-amino-1,2,3,4-tetrahydro-2-naphthoic acid]
Small intestine-to-plasma ratio (I/P) (in words) ([1]; 30 and 60 min after i.v., equimolar doses): significantly lower than that for 2-F-Tyr | Vmax of BBB transport relative to melphalan (LAT1): approximately seven times higher
